In the assay the target is T1, human factor Xa (Homo sapiens, UniProt P00742).
T1 construct: purchased Enzyme Research Laboratories
As to the kind of experiment: chromogenic peptide substrate assay, inhibition of factor Xa. Format: biochemical. The conditions noted are these: human factor Xa 3 nM, chromogenic substrate S-2222, pH 7.8, room temperature; apparent Ki from IC50 by Cheng-Prusoff. Here is the method:
Factor Xa activity was measured spectrophotometrically in microtiter plates in a final volume of 150 μl using the following conditions: Inhibition of human factor Xa (Enzyme Research Laboratories) was tested at an enzyme concentration of 3 nM using the chromogenic substrate S-2222 (Chromogenix AB, Mölndal, Sweden) at […]. The reaction kinetics of the enzyme and the substrate were linear with both time and the enzyme concentration. The inhibitors were dissolved in DMSO and tested at various concentrations up to 100 μM. The inhibitors were diluted using HNPT buffer consisting of HEPES 100 mM, NaCl 140 mM, PEG 6000 0.1% and Tween 80 0.02%, pH 7.8. The cleavage of S-2222 by human factor Xa was followed at 405 nm for 5 minutes at room temperature. The velocity of the reaction was determined by the autoreader from the slope of the linear regression fit to 7 time points (1 minute). The initial velocity for each inhibitor concentration was determined by the slope of at least 4 time points in the linear phase by a linear regression fit […]. Apparent dissociation constants Ki were calculated according to Cheng and Prusoff [Cheng, Y. C.; Prusoff, W. H. Relationship between the inhibition constant (Ki) and the concentration of the inhibitor that causes 50 percent inhibition (IC50) of an enzyme reaction. Biochem. Pharmacol. 1973, 22, 3099-3108.] based on the IC50 and the respective Km, determined previously (Ki=IC50/(1+S/Km)). […] [Lottenberg R, Hall J A, Blinder M, Binder E P, Jackson C M., The action of thrombin on peptide p-nitroanilide substrates. Substrate selectivity and examination of hydrolysis under different reaction conditions. Biochim Biophys Acta. 1983 Feb. 15; 742(3):539-57]. According to Eadie [Eadie G. S. The inhibition of cholinesterase by physostigmine and prostigmine. J. Biol. Chem. 1942, 146, 85-93.], the Km for S-2222 amounted to 613 μM.

Structures are written as SMILES.

T1 sequence (P00742 235-488 limits assumed): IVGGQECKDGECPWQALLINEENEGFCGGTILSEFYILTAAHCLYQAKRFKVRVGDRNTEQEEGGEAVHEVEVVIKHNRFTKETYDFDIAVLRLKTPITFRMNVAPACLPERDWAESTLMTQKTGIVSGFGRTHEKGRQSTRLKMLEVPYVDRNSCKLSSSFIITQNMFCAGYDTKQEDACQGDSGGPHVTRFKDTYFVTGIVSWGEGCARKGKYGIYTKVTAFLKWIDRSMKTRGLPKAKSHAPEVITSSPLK
T1 sequence (P00742 41-179 partner limits assumed): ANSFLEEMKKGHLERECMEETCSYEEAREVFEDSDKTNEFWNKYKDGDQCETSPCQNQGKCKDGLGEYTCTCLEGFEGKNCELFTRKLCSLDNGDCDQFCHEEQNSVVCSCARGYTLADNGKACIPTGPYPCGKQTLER

For the molecule `O=C(NC[C@H]1C[C@H](C(=O)Nc2ccc(-n3ccccc3=O)cc2F)C[C@@H]1O)c1ccc(Cl)s1` (racemic) [Example 15C], the Ki stood at 0.03 µM.

As for `O=C(N[C@H]1C[C@@H](C(=O)Nc2ccc(-n3ccccc3=O)cc2F)C[C@@H]1O)c1ccc(Cl)s1` [Example 1C, 5-chloro-thiophene-2-carboxylic acid {(1S,2S,4R)-4-[2-fluoro-4-(2-oxo-2H-pyridin-1-yl)-phenylcarbamoyl]-2-hydroxy-cyclopentyl}-amide], the Ki is 0.015 µM.

With `O=C(N[C@H]1C[C@@H](C(=O)Nc2ccc(-n3ccncc3=O)cc2F)C[C@@H]1O)c1ccc(Cl)s1` [Example 5, 5-chloro-thiophene-2-carboxylic acid {(1S,2S,4R)-4-[2-fluoro-4-(2-oxo-2H-pyrazin-1-yl)-phenylcarbamoyl]-2-hydroxy-cyclopentyl}-amide], the Ki turned out to be 0.018 µM. For `CCO[C@H]1C[C@H](C(=O)Nc2ccc(-n3ccccc3=O)cc2F)C[C@@H]1NC(=O)c1ccc(Cl)s1` [Example 13B, 5-chloro-thiophene-2-carboxylic acid {(1S,2S,4R)-2-ethoxy-4-[2-fluoro-4-(2-oxo-2H-pyridin-1-yl)-phenylcarbamoyl]-cyclopentyl}-amide] the value was 0.006 µM.

These data come from patent US7678917B2, “Factor Xa inhibitors” (Hoffman-La Roche Inc., priority 2005, dated 2010).
